Test results: ChEMBL document CHEMBL5042487, “Design, synthesis, and biological activity evaluation of 2-(benzo[b]thiophen-2-yl)-4-phenyl-4,5-dihydrooxazole derivatives as broad-spectrum antifungal agents” (Eur J Med Chem, 2022)
pIC50: −log10 of the molar value. In brackets after ≈: the same amount, converted by molar mass.

Experiments:
[1] = system: Candida albicans; assay: Antifungal activity against Candida albicans SC5314 assessed as inhibition of fungal growth by NCCLS protocol based method; assay type: functional
[2] = system: Candida albicans; assay: Antifungal activity against Candida albicans GIM 2.194 assessed as inhibition of fungal growth by NCCLS protocol based method; assay type: functional
[3] = system: Candida tropicalis; assay: Antifungal activity against Candida tropicalis GIM 2.183 assessed as inhibition of fungal growth by NCCLS protocol based method; assay type: functional
[4] = system: Cryptococcus neoformans; assay: Antifungal activity against Cryptococcus neoformans GIM 2.209 assessed as inhibition of fungal growth by NCCLS protocol based method; assay type: functional
[5] = system: Aspergillus fumigatus; assay: Antifungal activity against Aspergillus fumigatus CGMCC 3.7795 assessed as inhibition of fungal growth by NCCLS protocol based method; assay type: functional
[6] = Metabolic stability in human liver microsomes assessed as half life at 100 uM pre-incubated for 10 mins followed by NADPH-regenerating system and measured upto 60 mins by LC-MS/MS analysis; assay type: ADME, Microsome; details: time <=70 min
[7] = system: Candida albicans; assay: Antifungal activity against fluconazole resistant Candida albicans CaR assessed as inhibition of fungal growth by NCCLS protocol based method; assay type: functional
[8] = system: Candida albicans; assay: Antifungal activity against fluconazole and itraconazole resistant Candida albicans 17# assessed as inhibition of fungal growth by NCCLS protocol based method; assay type: functional
[9] = Stability in human plasma assessed as compound remaining incubated for 60 mins by LC-MS/MS analysis; assay type: ADME, cell-free; details: read-out: Stability
[10] = Stability in human plasma assessed as compound remaining incubated for 120 mins by LC-MS/MS analysis; assay type: ADME, cell-free; details: 2 h
[11] = Stability in human plasma assessed as half life incubated for 60 mins by LC-MS/MS analysis; assay type: ADME, cell-free
[12] = Metabolic stability in human liver microsomes assessed as microsomal intrinsic clearance at 100 uM pre-incubated for 10 mins followed by NADPH-regenerating system and measured upto 60 mins by LC-MS/MS analysis; assay type: ADME, Microsome; details: time <=70 min, read-out: CLH
[13] = Metabolic stability in human liver microsomes assessed as liver intrinsic clearance at 100 uM pre-incubated for 10 mins followed by NADPH-regenerating system and measured upto 60 mins by LC-MS/MS analysis; assay type: ADME, Microsome; details: time <=70 min, read-out: CLH
[14] = Metabolic stability in human liver microsomes assessed as parent compound remaining at 100 uM pre-incubated for 10 mins followed by NADPH-regenerating system and measured upto 60 mins by LC-MS/MS analysis; assay type: ADME, Microsome; details: time <=70 min, read-out: Stability
[15] = Metabolic stability in human liver microsomes assessed as parent compound remaining incubated upto 60 mins by LC-MS/MS analysis; assay type: ADME, Microsome; details: read-out: Stability
[16] = molecular target: T1, Cytochrome P450 1A2 (Homo sapiens, UniProt P05177); assay: Inhibition of CYP1A2 in human liver microsomes incubated for 10 mins in presence of NADPH by LC/MS/MS analysis; assay type: ADME
T1 sequence (P05177 whole entry): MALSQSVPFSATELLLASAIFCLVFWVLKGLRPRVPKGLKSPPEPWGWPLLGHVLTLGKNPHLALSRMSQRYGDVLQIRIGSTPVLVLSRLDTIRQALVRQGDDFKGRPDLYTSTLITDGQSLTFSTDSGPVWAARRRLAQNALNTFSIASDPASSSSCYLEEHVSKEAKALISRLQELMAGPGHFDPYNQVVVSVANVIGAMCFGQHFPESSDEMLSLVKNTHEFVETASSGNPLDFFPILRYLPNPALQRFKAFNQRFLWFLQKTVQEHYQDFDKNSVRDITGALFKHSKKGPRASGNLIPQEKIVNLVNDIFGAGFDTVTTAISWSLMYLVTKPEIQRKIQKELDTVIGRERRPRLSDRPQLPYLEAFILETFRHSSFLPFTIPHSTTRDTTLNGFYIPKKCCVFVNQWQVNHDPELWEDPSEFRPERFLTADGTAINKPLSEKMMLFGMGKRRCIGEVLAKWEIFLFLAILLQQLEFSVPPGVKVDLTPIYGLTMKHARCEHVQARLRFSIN

[17] = molecular target: Cytochrome P450 2C9 (Homo sapiens, UniProt P11712); assay: Inhibition of CYP2C9 in human liver microsomes incubated for 10 mins in presence of NADPH by LC/MS/MS analysis; assay type: ADME
Chain of Cytochrome P450 2C9 (P11712 whole entry): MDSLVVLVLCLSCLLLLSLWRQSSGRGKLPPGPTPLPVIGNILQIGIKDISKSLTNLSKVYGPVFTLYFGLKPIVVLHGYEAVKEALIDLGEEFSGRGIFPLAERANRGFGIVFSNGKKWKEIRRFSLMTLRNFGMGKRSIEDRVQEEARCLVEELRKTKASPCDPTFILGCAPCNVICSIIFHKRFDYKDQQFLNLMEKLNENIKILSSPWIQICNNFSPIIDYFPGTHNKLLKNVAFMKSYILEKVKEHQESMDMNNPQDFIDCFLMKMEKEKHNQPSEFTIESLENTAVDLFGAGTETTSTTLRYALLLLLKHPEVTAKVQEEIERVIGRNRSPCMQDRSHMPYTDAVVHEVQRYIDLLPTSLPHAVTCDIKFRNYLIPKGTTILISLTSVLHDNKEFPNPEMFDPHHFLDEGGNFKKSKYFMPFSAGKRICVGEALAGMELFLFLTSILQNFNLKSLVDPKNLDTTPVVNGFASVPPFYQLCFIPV

[18] = molecular target: Cytochrome P450 2C19 (Homo sapiens, UniProt P33261); assay: Inhibition of CYP2C19 in human liver microsomes incubated for 10 mins in presence of NADPH by LC/MS/MS analysis; assay type: ADME
Chain of Cytochrome P450 2C19 (P33261 whole entry): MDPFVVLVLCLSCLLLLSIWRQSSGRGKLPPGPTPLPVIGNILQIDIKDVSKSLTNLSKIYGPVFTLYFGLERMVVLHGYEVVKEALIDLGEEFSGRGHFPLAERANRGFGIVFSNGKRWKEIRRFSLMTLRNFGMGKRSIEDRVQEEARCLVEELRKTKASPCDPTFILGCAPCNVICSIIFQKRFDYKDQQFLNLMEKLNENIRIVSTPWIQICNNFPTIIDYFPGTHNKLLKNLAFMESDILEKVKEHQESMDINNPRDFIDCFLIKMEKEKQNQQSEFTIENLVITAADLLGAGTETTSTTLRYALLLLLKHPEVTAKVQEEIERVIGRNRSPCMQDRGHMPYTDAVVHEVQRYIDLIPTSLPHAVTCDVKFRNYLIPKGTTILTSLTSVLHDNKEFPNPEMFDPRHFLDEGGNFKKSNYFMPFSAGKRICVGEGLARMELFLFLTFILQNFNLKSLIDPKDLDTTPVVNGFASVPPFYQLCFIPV

[19] = molecular target: Cytochrome P450 2D6 (Homo sapiens, UniProt P10635); assay: Inhibition of CYP2D6 in human liver microsomes incubated for 10 mins in presence of NADPH by LC/MS/MS analysis; assay type: ADME
Chain of Cytochrome P450 2D6 (P10635 whole entry): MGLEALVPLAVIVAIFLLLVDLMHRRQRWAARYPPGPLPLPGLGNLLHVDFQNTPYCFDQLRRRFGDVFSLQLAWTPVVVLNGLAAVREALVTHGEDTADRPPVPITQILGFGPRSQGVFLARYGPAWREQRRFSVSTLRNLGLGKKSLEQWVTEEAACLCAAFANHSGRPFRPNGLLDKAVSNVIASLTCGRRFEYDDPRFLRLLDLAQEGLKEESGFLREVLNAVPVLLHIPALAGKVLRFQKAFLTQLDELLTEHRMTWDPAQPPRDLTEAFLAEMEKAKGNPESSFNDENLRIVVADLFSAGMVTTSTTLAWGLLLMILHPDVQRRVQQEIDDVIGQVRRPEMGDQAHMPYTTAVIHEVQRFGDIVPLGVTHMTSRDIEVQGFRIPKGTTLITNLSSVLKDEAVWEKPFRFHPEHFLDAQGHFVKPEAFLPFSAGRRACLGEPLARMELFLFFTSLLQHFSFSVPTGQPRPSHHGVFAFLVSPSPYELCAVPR

[20] = molecular target: Cytochrome P450 3A4 (Homo sapiens, UniProt P08684); assay: Inhibition of CYP3A4 in human liver microsomes incubated for 10 mins in presence of NADPH by LC/MS/MS analysis; assay type: ADME
Chain of Cytochrome P450 3A4 (P08684 whole entry): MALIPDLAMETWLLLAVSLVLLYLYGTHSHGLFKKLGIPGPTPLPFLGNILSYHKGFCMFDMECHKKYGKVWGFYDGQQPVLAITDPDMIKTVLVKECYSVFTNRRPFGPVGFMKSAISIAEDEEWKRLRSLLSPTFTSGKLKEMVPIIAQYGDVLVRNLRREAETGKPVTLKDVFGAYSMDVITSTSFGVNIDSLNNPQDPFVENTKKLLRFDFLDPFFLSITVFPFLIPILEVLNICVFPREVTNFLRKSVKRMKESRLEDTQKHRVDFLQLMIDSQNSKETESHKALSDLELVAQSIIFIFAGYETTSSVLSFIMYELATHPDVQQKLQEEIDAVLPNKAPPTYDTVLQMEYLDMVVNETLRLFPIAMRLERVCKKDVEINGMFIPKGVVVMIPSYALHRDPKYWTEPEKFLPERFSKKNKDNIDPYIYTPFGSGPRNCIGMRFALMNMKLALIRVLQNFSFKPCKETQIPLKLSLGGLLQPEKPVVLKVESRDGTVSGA

[21] = Initial plasma concentration in Sprague-Dawley rat at 2 mg/kg, iv measured upto 24 hrs by LC/MS/MS analysis; assay type: ADME, organism-based
[22] = Half life in Sprague-Dawley rat at 2 mg/kg, iv measured upto 24 hrs by LC/MS/MS analysis; assay type: ADME, organism-based; details: in vivo
[23] = Volume of distribution at steady state in Sprague-Dawley rat at 2 mg/kg, iv measured upto 24 hrs by LC/MS/MS analysis; assay type: ADME, organism-based; details: in vivo, read-out: Vdss
[24] = Clearance in Sprague-Dawley rat at 2 mg/kg, iv measured upto 24 hrs by LC/MS/MS analysis; assay type: ADME, organism-based; details: in vivo
[25] = AUC(0 to last) in Sprague-Dawley rat at 2 mg/kg, iv measured upto 24 hrs by LC/MS/MS analysis; assay type: ADME, organism-based; parameters: route intravenous, dose 2 mg/kg, time <=24; details: in vivo
[26] = AUC (0 to infinity) in Sprague-Dawley rat at 2 mg/kg, iv measured upto 24 hrs by LC/MS/MS analysis; assay type: ADME, organism-based; parameters: route intravenous, dose 2 mg/kg, time <=24; details: in vivo

Compound: Fc1ccc(C2(Cn3cncn3)COC(c3ccc(-c4ccoc4)cc3)=N2)cc1 (centres undefined)
- MIC [1]: < 0.03 µg/mL
- MIC [2]: < 0.03 µg/mL
- MIC [3]: 0.125 µg/mL (≈ 0.322 µM)
- MIC [4]: 0.25 µg/mL (≈ 0.644 µM)
- MIC [5]: 0.25 µg/mL (≈ 0.644 µM)
- half-life at 100 µM [6]: 0.31 h

Compound: OC(Cn1cncn1)(Cn1cncn1)c1ccc(F)cc1F [FLUCONAZOLE]
- MIC [1]: 0.5 µg/mL (≈ 1.63 µM)
- MIC [2]: 1 µg/mL (≈ 3.27 µM)
- MIC [3]: 1 µg/mL (≈ 3.27 µM)
- MIC [4]: 4 µg/mL (≈ 13.1 µM)
- MIC [5]: > 64 µg/mL
- MIC [7]: > 64 µg/mL
- MIC [8]: > 64 µg/mL
- remaining at 1 h [9]: 86.7%
- Stability [10]: 88.2%
- half-life [11]: > 4.82 h

Compound: Fc1cccc(C2(Cn3cncn3)COC(c3cc4ccc(Br)cc4s3)=N2)c1 (centres undefined)
- MIC [1]: < 0.03 µg/mL
- MIC [2]: < 0.03 µg/mL
- MIC [3]: < 0.03 µg/mL
- MIC [4]: 0.25 µg/mL (≈ 0.547 µM)
- MIC [5]: 2 µg/mL (≈ 4.37 µM)
- MIC [7]: > 64 µg/mL
- MIC [8]: > 64 µg/mL

Compound: Fc1ccc(C2(Cn3cncn3)COC(c3cc4ccc(Cl)cc4s3)=N2)cc1 (centres undefined)
- MIC [1]: < 0.03 µg/mL
- MIC [2]: < 0.03 µg/mL
- MIC [3]: < 0.03 µg/mL
- MIC [4]: 0.25 µg/mL (≈ 0.606 µM)
- MIC [5]: 0.5 µg/mL (≈ 1.21 µM)
- MIC [7]: 0.5 µg/mL (≈ 1.21 µM)
- MIC [8]: > 64 µg/mL
- half-life at 100 µM [6]: 1.34 h
- microsomal CLint at 100 µM [12]: 17.2 µL/min/mg
- CLint scaled at 100 µM [13]: 15.5 mL/min/kg
- remaining at 1 h, 100 µM [14]: 54.6%
- remaining at 1 h [15]: 82.6%
- remaining at 1 h [9]: 92.6%
- Stability [10]: 108.2%
- half-life [11]: > 4.82 h
- pIC50 [16]: 5.35
- pIC50 [17]: 5.54
- pIC50 [18]: 5.98
- pIC50 [19]: 4.50
- pIC50 [20]: 5.00
- C0 at 24 h [21]: 482 ng/mL
- half-life [22]: 3.34 h
- Vd [23]: 10.3 L/kg
- clearance [24]: 69.4 mL/min/kg
- AUC(0-t) at 24 h [25]: 483 ng·h/mL
- AUC(0-inf) [26]: 505 ng·h/mL

Compound: Clc1ccc(C2(Cn3cncn3)COC(c3cc4ccc(Cl)cc4s3)=N2)cc1 (centres undefined)
- MIC [1]: < 0.03 µg/mL
- MIC [2]: < 0.03 µg/mL
- MIC [3]: 0.06 µg/mL (≈ 0.14 µM)
- MIC [4]: 0.5 µg/mL (≈ 1.16 µM)
- MIC [5]: 2 µg/mL (≈ 4.66 µM)
- MIC [7]: 0.5 µg/mL (≈ 1.16 µM)
- MIC [8]: > 64 µg/mL
- half-life at 100 µM [6]: 1.16 h
- microsomal CLint at 100 µM [12]: 20 µL/min/mg
- CLint scaled at 100 µM [13]: 18 mL/min/kg
- remaining at 1 h, 100 µM [14]: 49.9%
- remaining at 1 h [15]: 77.3%
- remaining at 1 h [9]: 92.7%
- Stability [10]: 116.1%
- half-life [11]: > 4.82 h
- pIC50 [16]: 5.25
- pIC50 [17]: 5.82
- pIC50 [18]: 6.77
- pIC50 [19]: 4.32
- pIC50 [20]: 4.54
